Consider 1 compound from ChEMBL document CHEMBL1158843, “Development of a radiochemical cyclooxygenase-1 and -2 in vitro assay for identification of natural products as inhibitors of prostaglandin biosynthesis” (J Nat Prod, 1998).

The assay deals with T1, Prostaglandin G/H synthase 1 (Bos taurus) (UniProt O62664).
T1 sequence (whole entry): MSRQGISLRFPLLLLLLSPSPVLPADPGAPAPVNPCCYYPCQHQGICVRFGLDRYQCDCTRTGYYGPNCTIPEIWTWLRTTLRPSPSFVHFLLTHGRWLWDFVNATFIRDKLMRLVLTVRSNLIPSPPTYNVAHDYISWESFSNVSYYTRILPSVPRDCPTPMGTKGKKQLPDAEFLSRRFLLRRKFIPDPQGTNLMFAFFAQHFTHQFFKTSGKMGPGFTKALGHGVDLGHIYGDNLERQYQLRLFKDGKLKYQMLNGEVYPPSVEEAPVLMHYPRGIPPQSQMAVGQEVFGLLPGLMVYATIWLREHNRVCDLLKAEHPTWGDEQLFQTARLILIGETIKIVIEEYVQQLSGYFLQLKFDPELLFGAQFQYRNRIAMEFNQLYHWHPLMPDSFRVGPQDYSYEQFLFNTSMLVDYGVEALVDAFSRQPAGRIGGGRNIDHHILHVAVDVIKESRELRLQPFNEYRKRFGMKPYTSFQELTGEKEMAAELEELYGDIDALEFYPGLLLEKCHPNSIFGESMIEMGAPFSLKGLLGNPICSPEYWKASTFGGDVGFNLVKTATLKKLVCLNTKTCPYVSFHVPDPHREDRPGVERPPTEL
In words: Inhibition of bovine seminal microsomal COX1 assessed as PGE2 production at 100 uM preincubated for 10 mins.

For orientation: inhibition means the share of the control response that was lost under treatment.

On to `CS(=O)(=O)Nc1ccc([N+](=O)[O-])cc1OC1CCCCC1`, for which the inhibition amounted to 9%.
